This note sets out measurements from PMC9232501, “Results of the phase I CCTG IND.231 trial of CX-5461 in patients with advanced solid tumors enriched for DNA-repair deficiencies” (Nature Communications, 2022).

“And” between values parts separate entries of the source, which are not always exact repeats. Identical values can stand only once.

This data set relates to XPA knockout HAP1 cells. Nature of the data set: HAP1 XPA knockout cytotoxicity (WST-1 assay) with and without UVA. The data set is classed as cell-based. Particulars: for WST-1 raw signal (Figure 5h): replicates. How it is done:
Fig. 5 Comparison of G4 ligand photosensitization. […] Vertical axis, fractional survival, horizontal axis log10 drug concentration (M) (f) Representative images of CPD immunofluorescent staining under UV and drug treatment conditions for U2OS cells, quantified from biological duplicates in (g) (h) Scale bar = 100um. U2OS cells were treated with drug or vehicle control, then immediately irradiated with UVA 125 mJ/cm^2; and fixed 1 h later for immunofluorescence staining with CPD antibody. g Distribution of mean intensity of CPD level per cell (total n = in labels), with two biological repeats per condition. Vertical axis, mean CPD intensity per cell, horizontal axis, conditions (h) WT or KO XPA HAP1 cells assayed for cytotoxicity. Vertical axis, fractional survival (WST-1 assay). The horizontal axis, log10 drug concentration (M). Error bars = standard deviation of the mean. Three biological repeats per condition.
Human epidermal keratinocytes (HEKa) cells were sourced from Thermo Fisher Scientific, and were grown in EpiLife™ Medium with HKGS. HAP WT and XPA knockout cell lines (Horizon Discovery) were cultured in IMDM, 10% FCS. Human HCT116 cells, U2OS cells (ATCC) were grown in McCoy’s 5 A medium with 10% FBS and L-glutamine. All cell lines are mycoplasma free and have been authenticated by STR or SNP profiling. CX-5461 was provided by Senhwa Biosciences, Inc. PDS is from Sigma-Aldrich, BRACO-19 from Alfa Chemistry, PhENDC3 is from Sigma-Aldrich, γ -H2AX antibody from Abcam (1:1000 for IF) and CPD antibody (1:1500) from Cosmo Bio Ltd. (Catalog number: CAC-NM-DAD-001). The WST-1 assay was performed as previously described, γ H2AX foci staining was performed as previously described. Immunofluorescence staining of CPD was performed according to the protocol from the manufacturer (Cosmo Bio Ltd).

Turning to `Cc1cnc(CNC(=O)c2c(=O)c3ccc(N4CCCN(C)CC4)nc3n3c2sc2ccccc23)cn1` [CX-5461], the “WST-1 raw signal (Figure 5h)” value (conc 1.00E-07, 125 mJ/cm2 XPA) was 0.1279 and 0.1288; the “WST-1 raw signal (Figure 5h)” value (conc 1.00E-07, XPA No UV) is 0.1234 and 0.1195; the “WST-1 raw signal (Figure 5h)” value (conc 1.25E-08, 125 mJ/cm2 XPA) is 0.1288 and 0.1302; the “WST-1 raw signal (Figure 5h)” value (conc 1.25E-08, XPA No UV) is 3.2483 and 2.9851; the “WST-1 raw signal (Figure 5h)” value (conc 1.56E-09, 125 mJ/cm2 XPA) is 0.1344 and 0.1335; the “WST-1 raw signal (Figure 5h)” value (conc 1.56E-09, XPA No UV) was 3.436 and 3.4453. The “WST-1 raw signal (Figure 5h)” value reads like this: (conc 2.00E-07, 125 mJ/cm2 XPA) 0.0895 and 0.1298; (conc 2.00E-07, XPA No UV) 0.1255 and 0.1238; (conc 2.50E-08, 125 mJ/cm2 XPA) 0.1291 and 0.1284; (conc 2.50E-08, XPA No UV) 0.4389 and 0.6241; (conc 3.13E-09, 125 mJ/cm2 XPA) 0.128 and 0.1287; (conc 3.13E-09, XPA No UV) 3.4207 and 3.5618. Further, the “WST-1 raw signal (Figure 5h)” value was 2.554 and 2.4891 (conc 3.91E-10, 125 mJ/cm2 XPA); 3.4121 and 3.399 (conc 3.91E-10, XPA No UV); 0.1275 and 0.1296 (conc 5.00E-08, 125 mJ/cm2 XPA); 0.1252 and 0.1218 (conc 5.00E-08, XPA No UV); 0.1286 and 0.1316 (conc 6.25E-09, 125 mJ/cm2 XPA); 3.488 and 3.4015 (conc 6.25E-09, XPA No UV). In addition, the “WST-1 raw signal (Figure 5h)” value (conc 7.81E-10, 125 mJ/cm2 XPA) was 0.5854 and 0.7406; the “WST-1 raw signal (Figure 5h)” value (conc 7.81E-10, XPA No UV) is 3.4022 and 3.4603. In addition, under “with UVA”, the “effect of UVA radiation on cytotoxicity” value was “to a greater extent in XPA knockout cells”.
